Usually EC50 stands for the concentration that produces a half-maximal response.

Molecules are shown by their SMILES. pEC50: −log10 of the molar value.

One experiment has as its system recombinant NL-Rluc virus. In words: Inhibition of HIV replication (NL-RLuc luciferase reporter virus, MT-2 cells). Particulars: Human immunodeficiency virus 1, MT2, 120 h, read-out: Activity. It counts as cell-based.
With `Cc1nc2cc(C(=O)N(C)Cc3ccc(Cl)c(Cl)c3)nn2c(-c2cc(F)c3c(c2C)CCCO3)c1[C@H](OC(C)(C)C)C(=O)O` [Example 115, (2S)-2-(tert-butoxy)-2-(2-((3,4-dichlorobenzyl)(methyl)carbamoyl)-7-(8-fluoro-5-methylchroman-6-yl)-5-methylpyrazolo[1,5-a]pyrimidin-6-yl)acetic acid], the pEC50 is above 7.00.
Take `Cc1nc2cc(C(=O)N3CCN(c4ccc(Cl)cc4)CC3)nn2c(-c2cc(F)c3c(c2C)CCCO3)c1[C@H](OC(C)(C)C)C(=O)O` [Example 116, (2S)-2-(tert-butoxy)-2-(2-(4-(4-chlorophenyl)piperazine-1-carbonyl)-7-(8-fluoro-5-methylchroman-6-yl)-5-methylpyrazolo[1,5-a]pyrimidin-6-yl)acetic acid]: the pEC50 was above 7.00.
As for `Cc1nc2cc(C(=O)NCc3cccc(Cl)c3Cl)nn2c(-c2cc(F)c3c(c2C)CCCO3)c1[C@H](OC(C)(C)C)C(=O)O` [Example 117, (2S)-2-(tert-butoxy)-2-(2-((2,3-dichlorobenzyl)carbamoyl)-7-(8-fluoro-5-methylchroman-6-yl)-5-methylpyrazolo[1,5-a]pyrimidin-6-yl)acetic acid], the pEC50 is above 7.00.
As for `Cc1nc2cc(C(=O)NCc3cc(Cl)cc(Cl)c3)nn2c(-c2cc(F)c3c(c2C)CCCO3)c1[C@H](OC(C)(C)C)C(=O)O` [Example 118, (2S)-2-(tert-butoxy)-2-(2-((3,5-dichlorobenzyl)carbamoyl)-7-(8-fluoro-5-methylchroman-6-yl)-5-methylpyrazolo[1,5-a]pyrimidin-6-yl)acetic acid], the pEC50 was above 7.00.
Consider `Cc1nc2cc(C(=O)NCCc3nc4ccccc4s3)nn2c(-c2cc(F)c3c(c2C)CCCO3)c1[C@H](OC(C)(C)C)C(=O)O` [Example 119, (2S)-2-(2-((2-(benzo[d]thiazol-2-yl)ethyl)carbamoyl)-7-(8-fluoro-5-methylchroman-6-yl)-5-methylpyrazolo[1,5-a]pyrimidin-6-yl)-2-(tert-butoxy)acetic acid], for which the pEC50 was above 7.00.
Same read-out and setting: under `Cc1nc2cc(C(=O)NCc3ccc(Cl)c(C(F)(F)F)c3)nn2c(-c2cc(F)c3c(c2C)CCCO3)c1[C@H](OC(C)(C)C)C(=O)O` [Example 120, (2S)-2-(tert-butoxy)-2-(2-((4-chloro-3-(trifluoromethyl)benzyl)carbamoyl)-7-(8-fluoro-5-methylchroman-6-yl)-5-methylpyrazolo[1,5-a]pyrimidin-6-yl)acetic acid] stands above 7.00; under `Cc1nc2cc(C(=O)NCc3ccc(C#N)cc3)nn2c(-c2cc(F)c3c(c2C)CCCO3)c1[C@H](OC(C)(C)C)C(=O)O` [Example 121, (2S)-2-(tert-butoxy)-2-(2-((4-cyanobenzyl)carbamoyl)-7-(8-fluoro-5-methylchroman-6-yl)-5-methylpyrazolo[1,5-a]pyrimidin-6-yl)acetic acid], 6.00 to 7.00.
On the same count and under the same terms, under `Cc1nc2cc(C(=O)NCc3nc4ccccc4s3)nn2c(-c2cc(F)c3c(c2C)CCCO3)c1[C@H](OC(C)(C)C)C(=O)O` [Example 122, (2S)-2-(2-((benzo[d]thiazol-2-ylmethyl)carbamoyl)-7-(8-fluoro-5-methylchroman-6-yl)-5-methylpyrazolo[1,5-a]pyrimidin-6-yl)-2-(tert-butoxy)acetic acid] stands above 7.00; under `Cc1nc2cc(C(=O)Nc3ccccc3)nn2c(-c2cc(F)c3c(c2C)CCCO3)c1[C@H](OC(C)(C)C)C(=O)O` [Example 123, (2S)-2-(tert-butoxy)-2-(7-(8-fluoro-5-methylchroman-6-yl)-5-methyl-2-(phenylcarbamoyl)pyrazolo[1,5-a]pyrimidin-6-yl)acetic acid], above 7.00.
The same measure, in the same setting: under `CCCNC(=O)c1cc2nc(C)c([C@H](OC(C)(C)C)C(=O)O)c(-c3cc(F)c4c(c3C)CCCO4)n2n1` [Example 124, (2S)-2-(tert-butoxy)-2-(7-(8-fluoro-5-methylchroman-6-yl)-5-methyl-2-(propylcarbamoyl)pyrazolo[1,5-a]pyrimidin-6-yl)acetic acid] stands 6.00 to 7.00; under `Cc1nc2cc(C(=O)NCc3ccccc3C(F)(F)F)nn2c(-c2cc(F)c3c(c2C)CCCO3)c1[C@H](OC(C)(C)C)C(=O)O` [Example 125, (2S)-2-(tert-butoxy)-2-(7-(8-fluoro-5-methylchroman-6-yl)-5-methyl-2-((2-(trifluoromethyl)benzyl)carbamoyl)pyrazolo[1,5-a]pyrimidin-6-yl)acetic acid], above 7.00.
With `Cc1nc2cc(C(=O)NCC34C[C@H]5C[C@@H](C3)C[C@@H](C4)C5)nn2c(-c2cc(F)c3c(c2C)CCCO3)c1[C@H](OC(C)(C)C)C(=O)O` [Example 126, (2S)-2-(2-(((3S,5S,7S)-adamantan-1-ylmethyl)carbamoyl)-7-(8-fluoro-5-methylchroman-6-yl)-5-methylpyrazolo[1,5-a]pyrimidin-6-yl)-2-(tert-butoxy)acetic acid], the pEC50 was above 7.00.
Same read-out and setting: under `Cc1nc2cc(C(=O)NCC(C)(C)C)nn2c(-c2cc(F)c3c(c2C)CCCO3)c1[C@H](OC(C)(C)C)C(=O)O` [Example 127, (2S)-2-(tert-butoxy)-2-(7-(8-fluoro-5-methylchroman-6-yl)-5-methyl-2-(neopentylcarbamoyl)pyrazolo[1,5-a]pyrimidin-6-yl)acetic acid] stands 6.00 to 7.00; under `Cc1nc2cc(C(=O)NCCC3CCCCC3)nn2c(-c2cc(F)c3c(c2C)CCCO3)c1[C@H](OC(C)(C)C)C(=O)O` [Example 128, (2S)-2-(tert-butoxy)-2-(2-((2-cyclohexylethyl)carbamoyl)-7-(8-fluoro-5-methylchroman-6-yl)-5-methylpyrazolo[1,5-a]pyrimidin-6-yl)acetic acid], above 7.00; under `Cc1nc2cc(C(=O)NCCC3CCOCC3)nn2c(-c2cc(F)c3c(c2C)CCCO3)c1[C@H](OC(C)(C)C)C(=O)O` [Example 129, (2S)-2-(tert-butoxy)-2-(7-(8-fluoro-5-methylchroman-6-yl)-5-methyl-2-((2-(tetrahydro-2H-pyran-4-yl)ethyl)carbamoyl)pyrazolo[1,5-a]pyrimidin-6-yl)acetic acid], 6.00 to 7.00.
On to `Cc1nc2cc(C(=O)NCCC34C[C@H]5C[C@@H](C3)C[C@@H](C4)C5)nn2c(-c2cc(F)c3c(c2C)CCCO3)c1[C@H](OC(C)(C)C)C(=O)O` [Example 130], for which the pEC50 is above 7.00.
Same read-out and setting: under `Cc1nc2cc(C(=O)NCCCC3CCCCC3)nn2c(-c2cc(F)c3c(c2C)CCCO3)c1[C@H](OC(C)(C)C)C(=O)O` [Example 131] stands above 7.00; under `Cc1nc2cc(C(=O)NCCCC3CCOC3)nn2c(-c2cc(F)c3c(c2C)CCCO3)c1[C@H](OC(C)(C)C)C(=O)O` (stereo partly drawn) [Example 132, (2S)-2-(tert-butoxy)-2-(7-(8-fluoro-5-methylchroman-6-yl)-5-methyl-2-((3-(tetrahydrofuran-3-yl)propyl)carbamoyl)pyrazolo[1,5-a]pyrimidin-6-yl)acetic acid], 6.00 to 7.00; under `CCCOCCNC(=O)c1cc2nc(C)c([C@H](OC(C)(C)C)C(=O)O)c(-c3cc(F)c4c(c3C)CCCO4)n2n1` [Example 133, (2S)-2-(tert-butoxy)-2-(7-(8-fluoro-5-methylchroman-6-yl)-5-methyl-2-((2-propoxyethyl)carbamoyl)pyrazolo[1,5-a]pyrimidin-6-yl)acetic acid], 6.00 to 7.00.

Staying with this experiment, now noted: Human immunodeficiency virus 1, MT2, 120 h, read-out: EC50 μM.
As to `CCCOCCNC(=O)c1cc2nc(C)c([C@H](OC(C)(C)C)C(=O)O)c(-c3cc(F)c4c(c3C)CCCO4)n2n1` [Example 133, (2S)-2-(tert-butoxy)-2-(7-(8-fluoro-5-methylchroman-6-yl)-5-methyl-2-((2-propoxyethyl)carbamoyl)pyrazolo[1,5-a]pyrimidin-6-yl)acetic acid], the EC50 came to 0.185 µM.

These data come from patent US8791108B2, “Inhibitors of human immunodeficiency virus replication” (priority 2011, dated 2014).
